Measured values taken from PubChem BioAssay AID2743 (NMMLSC, 2010).
Values joined by “and” are separate entries in the source; they are usually repeats but may differ in a detail not shown here. Identical values can stand only once. Active and inactive are the calls of the source.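 The calls were made as follows: active = fitted half-maximal concentration for change in GFP expression of 33 µM or less; inactive = the rest.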

Assay: potency of AGP1-GFP expression modulators in yeast, dose response, cell-based, flow cytometry, S. cerevisiae, MLPCN hits (AID 2743)
Conditions: S. cerevisiae AGP1-GFP strain, flow cytometry GFP, 3 h; at 33 µM (top of the series)

Compound | GFP fluorescence (kMESF)
C=CCOc1ccc(C(=O)/C=C2/C(=O)Nc3ccccc32)cc1 | 46.5 kMESF (inactive)
ClC(Cl)(c1nnnn1-c1ccccc1)c1nnnn1-c1ccccc1 | 35.1 kMESF (inactive)
COc1cccc(/C=N/Nc2ccc([N+](=O)[O-])cn2)c1O | 29.3 kMESF (inactive)
COc1ccc(NC2=C(Cl)C(=O)N(CCc3ccccc3)C2=O)cc1 | 43.7 kMESF (inactive)
COc1ccc(N/N=C(\C#N)C(N)=O)cc1 | 52.4 kMESF (inactive)
CCCN1CCc2c(sc(NC(=S)NC(=O)c3ccccc3)c2C#N)C1 | 42 kMESF (inactive)
COc1cc(/C=C/[N+](=O)[O-])ccc1O | 32.3 kMESF (inactive)
COc1ccc(/C=C/C(=O)NC(=S)NNC(=O)c2cnccn2)cc1 | 38.3 kMESF (inactive)
N=C1/C(=C\c2coc3ccccc3c2=O)C(=O)N=C2SC(c3ccncc3)=NN12 | 44.7 kMESF (inactive)
O=c1c2sc(-c3ccccc3)cc2nc2n1CCC2 | 25 kMESF (inactive)
O=C(c1ccc(Cl)cc1)N1CCN(c2cccc3[nH]ccc23)CC1 | 46.1 kMESF (inactive)
Cc1ccc(C(CC(=O)O)NC(=O)c2ccc(S(=O)(=O)N3CC(C)OC(C)C3)cc2)cc1 (centres undefined) | 36.9 kMESF (inactive)
O=C1C2C3C=CC(CO)(O3)C2C(=O)N1c1ccccc1-c1ccccc1 (centres undefined) | 36.3 kMESF (inactive)
O=C1NC(=O)N(Cc2ccc(F)cc2)C(=O)/C1=C/c1cccs1 | 28.1 kMESF (inactive)
CC(Oc1ccc(Cl)cc1)C(=O)NNC(=S)NC(=O)c1ccco1 (centres undefined) | 34.2 kMESF (inactive)
O=[N+]([O-])c1cc(S(=O)(=O)C(F)(F)F)ccc1Sc1nc2ccccc2s1 | 39.1 kMESF (inactive)
O=C1c2cccc3c([N+](=O)[O-])ccc(c23)C(=O)N1O | 40.9 kMESF (inactive)
CC(=O)OC[C@]12CC[C@H]3[C@@](C)(CC[C@H]4C(C)(C)CCC[C@]34C)[C@@H]1C[C@H](C1=CC(=O)O[C@@H]1OC(C)=O)O2 | 31 kMESF (inactive)
Cc1ccc(/C=C/C(=O)c2ccccc(=O)c2O)c(C)c1 | 28.9 kMESF (inactive)
Cc1ccsc1/C=N/Nc1ncc(Cl)cc1Cl | 36 kMESF (inactive)
O=[N+]([O-])c1cnc(Sc2ccncn2)s1 | 33.9 kMESF (inactive)
O=C1ON=C(c2ccccc2)/C1=C/c1ccco1 | 41.7 kMESF (inactive)
CCOC(=O)CSC1=NC(=O)/C(=C\c2ccc(Cl)cc2)S1 | 41.8 kMESF (inactive)

Compound | GFP fluorescence (kMESF)
CN1CCN(C(c2ccc(C(F)(F)F)cc2)c2ccc3cccnc3c2O)CC1 (centres undefined) | 34 kMESF (inactive)
Cc1cc(C(=O)Nc2nc(-c3ccccn3)cs2)ccc1[N+](=O)[O-] | 44.4 kMESF (inactive)
CC(=O)N(C1=C(Cl)C(=O)c2ccccc2C1=O)C1CCCCC1 | -0.34 kMESF (inactive)
N/C(Cc1ccc(Cl)c(Cl)c1)=N\OC(=O)c1cccs1 | 29.8 kMESF (inactive)
COc1ccc([C@@]2(C(C)C)ON(c3ccccc3C(F)(F)F)C2=O)cc1 | 39.4 kMESF (inactive)
COc1cc(N=c2ssnc2Cl)cc(OC)c1 | 38.8 kMESF (inactive)
CCCCc1ccc(/C=C2/C(=O)ON=C2c2ccccc2)s1 | 38.4 kMESF (inactive)
CCOC(=O)Cn1cc(/C=C/[N+](=O)[O-])c2ccccc21 | 43.7 kMESF (inactive)
COc1cccc(/C=C2\C(=O)N(c3cccc(C)c3)C(=O)c3ccccc32)c1 | 45.3 kMESF (inactive)
COc1ccc(/C=C2\C(=O)ON=C2c2ccccc2)cc1 | 28 kMESF (inactive)
Cc1cccnc1Nc1nc(-c2ccccn2)cs1 | 31 kMESF (inactive)
O=C1ON=C(c2ccccc2)/C1=C\c1ccco1 | 42.7 kMESF (inactive)
O=[N+]([O-])c1ccc(N=Nc2c(Cl)cc(O)cc2Cl)cc1 | 41.8 kMESF (inactive)
CCOc1ccc(N/N=C(/C#N)C(N)=O)cc1 | 54.7 kMESF (inactive)
CCC(=O)Nc1ccc(NC(=O)c2cc3ccccc3o2)cc1 | 43.4 kMESF (inactive)
COc1ccccc1[C@@]1(C)ON(c2ccccc2C(F)(F)F)C1=O | 30.9 kMESF (inactive)
Cc1[nH]c(-c2ccccn2)nc(=S)c1Cl | 51 kMESF (inactive)
O=C(COc1c(Br)cc(Br)c2cccnc12)N1CCc2ccccc2C1 | 28.6 kMESF (inactive)
C[C@@]12C(=O)OC(=O)[C@]1(C)C1CCC2O1 | 32.6 kMESF (inactive)
Cc1ccc(NC(=O)ON=C2CCCC2)cc1 | 26.4 kMESF (inactive)
Nc1c(C(=O)c2cccs2)sc2nsc(SCCN3CCCCC3)c12 | 35.6 kMESF (inactive)
CCCCC(=O)NNC(=S)NC(=O)c1ccc(C)cc1 | 58.2 kMESF (inactive)
O=C(OCn1ncc(Br)c(Br)c1=O)c1ccccc1Cl | 46 kMESF (inactive)

Compound | GFP fluorescence (kMESF)
O=C1NC(=O)N(CCc2ccc(F)cc2)C(=O)/C1=C/c1cccs1 | 39.1 kMESF (inactive)
COc1ccc(C(=O)/C=C2/C(=O)Nc3ccccc32)cc1OC | 43.9 kMESF (inactive)
O=C1C(=O)c2ccccc2-c2ccccc21 | 17.5 kMESF (inactive)
COc1ccc(CCNC2=C(Cl)C(=O)N(CCc3ccccc3)C2=O)cc1OC | 42 kMESF (inactive)
Cc1c(NC2=C(Cl)C(=O)N(c3ccccc3Cl)C2=O)c(=O)n(-c2ccccc2)n1C | 38.1 kMESF (inactive)
CC(C)C(=O)NC(c1cccs1)c1cc([N+](=O)[O-])c2cccnc2c1O (centres undefined) | 38.9 kMESF (inactive)
COc1cc(C=C2C(=O)c3ccccc3C2=O)cc(OC)c1 | 38 kMESF (inactive)
CC(=O)N(C(C)=O)c1ncnc2c1c(-c1ccc(Cl)cc1)nn2C(C)(C)C | 36.6 kMESF (inactive)
Cc1ccc(C(c2cc(Cl)c3cccnc3c2O)N2CCN(C)CC2)cc1 (centres undefined) | 27.9 kMESF (inactive)
COc1ccc(N=Cc2nc(-c3ccccc3)oc2OC(=O)c2ccccc2)cc1 | 39.5 kMESF (inactive)
CCOc1ccc(C(Nc2cccnc2)c2cc(Cl)c3cccnc3c2O)cc1 (centres undefined) | 36.3 kMESF (inactive)
CCOc1ccc(N2C(=O)/C(=C\c3cccs3)C(=O)NC2=S)cc1 | 27.9 kMESF (inactive)
Oc1ccc(CNc2ccccc2)c2cccnc12 | 36.5 kMESF (inactive)
O=C(OCn1ncc(Br)c(Br)c1=O)c1c(F)cccc1F | 42.7 kMESF (inactive)
Cc1[nH]c2ccccc2c1C(=O)COC(=O)c1ccc([N+](=O)[O-])s1 | 16.9 kMESF (inactive)
Cc1ccc(O)c(N=Nc2nccs2)c1 | 30.4 kMESF (inactive)
CCC1(c2ccccc2)ON(c2c(Br)cccc2Br)C1=O (centres undefined) | 28.9 kMESF (inactive)
Cc1ccc2c(c1)c(/C=C/c1cc[n+](C)cc1)c(C)n2C | 48.2 kMESF (inactive)
O=C(Nc1nc2ccc(F)cc2s1)c1ccccn1 | 41.4 kMESF (inactive)
O=[N+]([O-])c1ccc(Sc2nc3ccccc3o2)c([N+](=O)[O-])c1 | 37.2 kMESF (inactive)
Cn1ncc(S(=O)(=O)Cc2ccccc2)c(Cl)c1=O | 43.9 kMESF (inactive)
Clc1cccc(CN2COc3c(cc(Cl)c4cccnc34)C2)c1 | 35.6 kMESF (inactive)
O=C1Nc2ccc(Br)cc2/C1=C/C(=O)c1ccc2c(c1)OCO2 | 46.7 kMESF (inactive)

Compound | GFP fluorescence (kMESF)
Cc1ccc(-c2nc(C)sc2CC(=O)Nc2nnc(C)s2)cc1 | 34.5 kMESF (inactive)
CC(C)(C)c1cc(C(c2cccnc2)N2CCN(CCO)CC2)cc(C(C)(C)C)c1O (centres undefined) | 42.2 kMESF (inactive)
COc1ccc(/C=C2/C(=O)ON=C2c2ccccc2)cc1OC | 27.1 kMESF (inactive)
C#CCOCCOCCOCCNc1nc(N2CCN(C(=O)CCCCCCCCCCNC(=O)[C@H](CCCCN)n3cc(C)nn3)CC2)nc(N2CCN(C(=O)CCCCCCCCCCNC(=O)[C@H](CCCN=C(N)N)n3cc(C[C@@H](C)CC)nn3)CC2)n1 | 43.6 kMESF (inactive)
Cc1ccc(C(=O)NNC(=S)NC(=O)c2ccco2)cc1 | 44.1 kMESF (inactive)
O=C(/C=C/c1ccccc1)NC(=S)NNC(=O)Cc1cccs1 | 41.4 kMESF (inactive)
CC(C)(C)C(=O)NC(=S)NNC(=O)c1ccc(-c2ccccc2)cc1 | 44.1 kMESF (inactive)
O=C(Nc1ccc(NC(=O)c2cc3ccccc3o2)cc1)c1ccc2c(c1)OCCO2 | 42.8 kMESF (inactive)
O=[N+]([O-])c1cc(Cl)cc(/C=N\Nc2ccccn2)c1O | 30.3 kMESF (inactive)
CCN1C(=O)/C(=C\C(=O)c2cccs2)c2cc(Br)ccc21 | 45.3 kMESF (inactive)
CC(C)[C@]1(c2ccccc2)ON(c2ccccc2C(F)(F)F)C1=O | 34.2 kMESF (inactive)
Cc1cc(C)c(OCC(=O)Nc2nc(-c3ccccn3)cs2)c(C)c1 | 28.8 kMESF (inactive)
CCOC(=O)CSC1=NC(=O)/C(=C/c2ccc(Br)cc2)S1 | 37 kMESF (inactive)
Oc1c(CN2CCN(c3ccc(F)cc3)CC2)cc(Cl)c2cccnc12 | 41.8 kMESF (inactive)
C#CCOCCOCCOCCNc1nc(N2CCN(C(=O)CCCCCCCCCCNC(=O)[C@@H](CCC(=O)O)n3cc(CCCCCN)nn3)CC2)nc(N2CCN(C(=O)CCCCCCCCCCNC(=O)[C@H](CCCCN)n3cc(C[C@@H](C)CC)nn3)CC2)n1 | 51.4 kMESF (inactive)
Cc1ccc(N2C(=O)C(Cl)=C(Nc3c(C)n(C)n(-c4ccccc4)c3=O)C2=O)cc1 | 35 kMESF (inactive)
Cc1ccc(/C=C2\SC(=S)N(Cc3ccccc3)C2=O)o1 | 38.4 kMESF (inactive)
O=C1Oc2ccccc2C(=O)/C1=C/c1ccccc1O | 39.4 kMESF (inactive)
COc1ccccc1N1C(=O)c2cccc3c(C(=O)O)ccc(c23)C1=O | 49 kMESF (inactive)
COc1cc(N=c2ssnc2Cl)c(OC)cc1Cl | 27.6 kMESF (inactive) and 26.1 kMESF (inactive)
